{"source": "patent US20050272808A1", "about": "“Compositions and methods for the treatment of hypertension” (priority 2004, published 2005)", "key": {"[1]": {"tested_on": "Spontaneously Hypertensive Rats (SHR)", "assay": "Systemic blood pressure of anesthetized Spontaneously Hypertensive Rats (i.v. bolus or p.o. intra stomach)", "format": "in vivo, rat", "experimental": "Spontaneously Hypertensive Rats, (Harlan USA) 290-330 gr weight, were anaesthetized with 100-120 mg/kg Inactin in one single bolus injection i.p. The chest was shaven, and animal was secured in supine position. Anaesthetized rats were subject to tracheotomy with 18G catheter. The left femoral vein was cannulated for drug administration and infusion.\nFor measurement of hemodynamic parameters a cannula was inserted retrogradely into the left carotid artery. The tip of the catheter was positioned close to the origin of the subclavian artery. The catheter was connected to a blood pressure measurement system (BioPac MP100 workstation, BioPac System inc.). ECG was recorded by BioPac MP100 workstation. The information was saved electronically.\nDuring the experiment 1 ml/h of Hartmann's solution was infused i.v.\nAlternatively an 80-125 mg/Kg of MCT-based formulation was injected p.o. intra stomach."}, "[2]": {"tested_on": "cultured SV40 transformed cat iris sphincter smooth muscle (SV-CISM-2)", "conditions": "WO 01/39766, cited from earlier work; for elevation of cGMP levels in vitro: SV-CISM-2 cells; for ability to elevate cGMP levels in cultured smooth muscle cells: comparison of the two compounds"}, "[3]": {"tested_on": "Cat iris sphincter smooth muscle (SV-CISM-2) cells", "assay": "cGMP assay (RIA) in cultured smooth muscle cells in presence of IBMX", "format": "cell-based", "conditions": "for cGMP formed % of control / cGMP formed: IBMX present; for cGMP formed: mean±SEM", "experimental": "Cat iris sphincter smooth muscle (SV-CISM-2) cells were maintained in Dulbecco's modified Eagle medium (DMEM), supplemented with 10% fetal calf serum (FCS) and 50 μg/ml gentamicin (culture medium) as described by Ding et al. 1999. (Life Sci. Vol: 64 pp. 161-174) To initiate subculture, confluent SV-CISM-2 cells were washed with Ca^2+-Mg^2+ free Dulbecco's phosphate buffered salt solution (PBS) and treated with 0.05% trypsin in 0.5 mM EDTA for 3 minutes at 37° C. This was followed by addition of culture medium, and the cell suspension was centrifuged at 200 g for 5 minutes. The pelleted cells were suspended in culture medium and seeded in 6-well plates for the cGMP assay. Confluent cells, in 6-well plates were washed once with DMEM and incubated in 2 ml DMEM for 15 minutes at 37° C. IBMX (0.1 mM) was added and incubated for additional 10 minutes. The tested agent was then added and incubations continued for 10 minutes. Anantin (1 μM) or L-NAME (0.1 mM) were added along with IBMX, 10 minutes prior to addition of the tested compound. Reactions were stopped by replacing the medium with 1 ml ice-cold 5% trichloroacetic acid (TCA) (W/V). The obtained samples were homogenized, centrifuged and the supernatants were extracted with anhydrous diethylether. A 100 μl portion of the supernatant from each sample was taken; and after appropriate dilutions cGMP was assayed by radioimmunoassay RIA as described by the aforementioned Ding et al. 1999. Protein content was determinate by the method of Lowry with bovine serum albumin as standard as described in the aforementioned Ding et al. 1999. The data are presented as mean±SEM of three separate experiments with triplicate incubations for each data point."}, "Male Sprague-Dawley rats": {"tested_on": "Male Sprague-Dawley rats", "assay": "Systemic blood pressure and ECG of normotensive anesthetized rats, i.v. bolus injection", "format": "in vivo", "experimental": "Male Sprague-Dawley rats, weighing 250-350 grams were anaesthetized with mixture of Ketamine (90 mg/Kg body weight) and Xylazine (10 mg/Kg body weight) in a single bolus injection. The rats' chest was shaven; and the rats were secured in supine position. Anaesthetized rats were intubated with 18G catheter, connected to a ventilator [Harvard Apparatus] and ventilated with a room air (volume: 2 ml, rate: 70 per min). The left femoral vein was cannulated for drug administration, which is standardized to injections of 0.2 ml/100 grams body weight over a period of 0.5-1 minutes.\nFor measurement of hemodynamic parameters [blood pressure (BP), heart rate (HR)] a cannula was inserted retrogradely into the left carotid artery. The tip of the catheter was positioned close to the origin of the subclavian artery.\nFor continuous monitoring of blood pressure (systolic and diastolic pressure) and heart rate, the catheter was connected to a pressure transducer [Grass instrument co., Quincy, Mass. USA]. To monitor the ECG (electrocardiogram): two electrodes were connected to the animal's arms and one electrode was connected to its left leg. The monitoring system was calibrated at the beginning of each experiment. Recording all the steps of the calibration. ECG and hemodynamic parameters were recorded continuously during the whole experiment.\nMonitoring rate (speed of paper) was at 5 mm/sec. At different times (stabilization, after injections, blood pressure changes, etc.,) the monitoring rate was changed to 25 mm/sec. In addition routinely, every 5 minutes the monitoring rate was changed to 25 mm/sec. for 15 sec. ECG recordings were obtained at the same times as hemodynamic measurements.\nThe test compound was administered by bolus injection intravenously at different doses (2,4,6,8 mg/Kg body weight). Each dose was administrated twice in the same manner. The second dose was given after the hemodynamic parameters were recovered (or stabilized) following the first injection."}, "[4]": {"conditions": "20 mg/Kg body weight i.v. bolus"}, "[5]": {"conditions": "20 mg/Kg body weight i.v. bolus, 30 minutes after injection"}, "[6]": {"conditions": "oral administration, 80 or 125 mg/Kg"}, "[7]": {"conditions": "4 mg/Kg body weight, single dose"}, "[8]": {"conditions": "8 mg/Kg body weight i.v. bolus, 30 minutes after first injection, FIG. 1A"}, "[9]": {"conditions": "8 mg/Kg body weight i.v. bolus, 30 minutes after first injection, FIG. 1B"}, "[10]": {"conditions": "additional (second) bolus injection 8 mg/Kg, after 30 minutes"}}}
{"smiles": "C1=COC2(CC1)CCCCO2", "note": "(stereo not shown) [1,7-dioxaspiro[5.5]undec-2-ene]", "values": [{"measurement": "reduction in diastolic blood pressure (range)", "setting": "[1]; [4]", "value": "20-33%"}, {"measurement": "reduction in systolic blood pressure (range)", "setting": "[1]; [5]", "value": "18-28%"}, {"measurement": "duration of effect", "setting": "[1]; 20 mg/Kg i.v. bolus", "value": "about 30 minutes"}, {"measurement": "time of maximal effect after the injection", "setting": "[1]; 20 mg/Kg i.v. bolus", "value": "35 to 55", "unit": "min"}]}
{"smiles": "C/C=C/C=C/CCCCCCCO", "note": "[E,E-8,10-Dodecadienol]", "values": [{"measurement": "elevation of cGMP levels in vitro", "setting": "[2]", "value": "elevate cGMP levels"}]}
{"smiles": "CCCCCC/C=C\\CCCCCC=O", "note": "[Z-7-Tetradecenal]", "values": [{"measurement": "elevation of cGMP levels in vitro", "setting": "[2]", "value": "elevate cGMP levels"}]}
{"smiles": "COC(=O)[C@@H](N)CCCNC(=N)N[N+](=O)[O-]", "note": "[L-NAME, N^G-nitro-L-arginine methyl ester, reference compound]", "values": [{"measurement": "effect on 1,7-dioxaspiro[5.5]undecane-stimulated cGMP formation", "setting": "[3]; tested together with 1,7-dioxaspiro[5.5]undecane 0.1 μM, Anantin 1 μM, L-NAME 100 μM", "value": "attenuated"}]}
{"smiles": "CCCC/C=C\\CCCCCCCCCCCC=O", "note": "[Z-13-octadecenal, reference compound]", "values": [{"measurement": "elevation of cGMP levels in vitro", "setting": "[2]", "value": "elevate cGMP levels"}, {"measurement": "ability to elevate cGMP levels in cultured smooth muscle cells", "setting": "[2]", "value": "comparable ability to elevate cGMP levels"}, {"measurement": "effect on blood pressure", "setting": "Male Sprague-Dawley rats; 4 mg/Kg body weight bolus, two animals, single and double dose", "value": "no reduction"}, {"measurement": "effect on blood pressure", "setting": "Male Sprague-Dawley rats; 8 mg/Kg body weight bolus injection, five animals, FIG. 2", "value": "uncontrolled reduction in blood pressure in three out of five animals tested"}, {"measurement": "response of systemic blood pressure in the two surviving animals", "setting": "Male Sprague-Dawley rats; 8 mg/Kg body weight, both injections", "value": "minimal or no response"}, {"measurement": "toxicity of intravenous administration (mortality)", "setting": "Male Sprague-Dawley rats; intravenous administration, five animals", "value": "death of three out of five animals tested"}]}
{"smiles": "C1CCC2(CCCCO2)OC1", "note": "[1,7-dioxaspiro[5.5]undecane]", "values": [{"measurement": "cGMP formed % of control", "setting": "[3]; 0.1 μM & Anantin (1 μM)", "value": "253 % of control"}, {"measurement": "cGMP formed", "setting": "[3]; 0.1 μM & Anantin (1 μM)", "value": "1.32 ± 0.1", "unit": "pmol/mg protein/10 min"}, {"measurement": "cGMP formed % of control", "setting": "[3]; 0.1 μM & L-NAME (100 μM)", "value": "182 % of control"}, {"measurement": "cGMP formed", "setting": "[3]; 0.1 μM & L-NAME (100 μM)", "value": "0.94 ± 0.15", "unit": "pmol/mg protein/10 min"}, {"measurement": "cGMP formed % of control", "setting": "[3]; 0.1 μM", "value": "236 % of control"}, {"measurement": "cGMP formed", "setting": "[3]; 0.1 μM", "value": "1.23 ± 0.1", "unit": "pmol/mg protein/10 min"}, {"measurement": "increase of cGMP concentration", "setting": "[3]; 0.1 μM, versus control", "value": 2.36, "unit": "times"}, {"measurement": "elevation of cGMP levels in vitro", "setting": "[2]", "value": "elevate cGMP levels"}, {"measurement": "ability to elevate cGMP levels in cultured smooth muscle cells", "setting": "[2]", "value": "comparable ability to elevate cGMP levels"}, {"measurement": "reduction in diastolic blood pressure (range)", "setting": "[1]; [4]", "value": "15-28%"}, {"measurement": "reduction in systolic blood pressure (range)", "setting": "[1]; [5]", "value": "20-30%"}, {"measurement": "duration of effect", "setting": "[1]; 20 mg/Kg i.v. bolus", "value": "≥ 90", "unit": "min"}, {"measurement": "time of maximal effect after the injection", "setting": "[1]; 20 mg/Kg i.v. bolus", "value": "110 to 120", "unit": "min"}, {"measurement": "reduction in systolic blood pressure (range)", "setting": "[1]; oral administration, 80 mg/Kg body weight, after 150 minutes", "value": "15-28%"}, {"measurement": "reduction in systolic blood pressure (range)", "setting": "[1]; oral administration, 80 mg/Kg, after 150 minutes, stated under FIG. 5B (diastolic blood pressure)", "value": "20-30%"}, {"measurement": "reduction in systolic blood pressure (range)", "setting": "[1]; oral administration, 125 mg/Kg, 150 minutes post injection", "value": "30-45%"}, {"measurement": "reduction in systolic blood pressure (range)", "setting": "[1]; oral administration, 125 mg/Kg, after 150 minutes, stated under FIG. 5B (diastolic blood pressure)", "value": "40-53%"}, {"measurement": "duration of effect", "setting": "[1]; [6]", "value": "about an hour"}, {"measurement": "time of maximal effect after the injection", "setting": "[1]; [6]", "value": "150 to 220", "unit": "min"}, {"measurement": "effect on systemic blood pressure", "setting": "Male Sprague-Dawley rats; 2 mg/Kg body weight, single and double dose", "value": "no effect"}, {"measurement": "hypotensive effect after second injection", "setting": "Male Sprague-Dawley rats; 4 mg/Kg body weight, second injection of the same dose", "value": "more pronounced"}, {"measurement": "duration of hypotensive effect", "setting": "Male Sprague-Dawley rats; [7]", "value": "about 15 minutes"}, {"measurement": "effect on systemic blood pressure", "setting": "Male Sprague-Dawley rats; [7]", "value": "mild hypotensive effect"}, {"measurement": "reduction in systolic blood pressure (average)", "setting": "Male Sprague-Dawley rats; [8]", "value": 18.1, "unit": "%"}, {"measurement": "reduction in systolic blood pressure (range)", "setting": "Male Sprague-Dawley rats; [8]", "value": "10-30%"}, {"measurement": "reduction in diastolic blood pressure (average)", "setting": "Male Sprague-Dawley rats; [9]", "value": 20.5, "unit": "%"}, {"measurement": "reduction in diastolic blood pressure (range)", "setting": "Male Sprague-Dawley rats; [9]", "value": "7-32%"}, {"measurement": "reduction in diastolic blood pressure (average)", "setting": "Male Sprague-Dawley rats; [10]", "value": 36.5, "unit": "%"}, {"measurement": "reduction in diastolic blood pressure (range)", "setting": "Male Sprague-Dawley rats; [10]", "value": "15-53%"}, {"measurement": "reduction in systolic blood pressure (average)", "setting": "Male Sprague-Dawley rats; [10]", "value": 28.3, "unit": "%"}, {"measurement": "reduction in systolic blood pressure (range)", "setting": "Male Sprague-Dawley rats; [10]", "value": "15-42%"}, {"measurement": "effect on heart contractility (ECG monitoring)", "setting": "Male Sprague-Dawley rats; single and double dosage of 2-8 mg/Kg body weight i.v. bolus", "value": "no effect"}]}
{"smiles": "CCCC/C=C\\CCCCCCCCCCOC(C)=O", "note": "[Z-11-Hexadecenyl-Acetate]", "values": [{"measurement": "elevation of cGMP levels in vitro", "setting": "[2]", "value": "elevate cGMP levels"}]}
